The record followed here is patent US20250122219A1 (priority 2023, published 2025).

Read-outs that look alike come from different tables or passages of the source.

One series concerns HIV-1 (IIIB). The series is described as follows: Antiviral assay in MT-4 cells. The series is classed as cell-based. The protocol:
(§1) Compounds were tested in a high-throughput 384-well assay format for their ability to inhibit the replication of HIV-1 (IIIB) in MT-4 cells. Compounds were serially diluted (1.3) in DMSO on 384-well polypropylene plates and further diluted 200-fold into complete RPMI media (10% FBS, 1% P/S) using the Biotek Micro Flow and Labcyte ECHO acoustic dispenser. Each plate contained up to 8 test compounds, with negative (No Drug Control) and 5 μM AZT positive controls. MT-4 cells were pre-infected with 10 μL of either RPMI (mock-infected) or a fresh 1:250 dilution of HIV-1 IIIB concentrated virus stock. Infected and uninfected MT-4 cells were further diluted in complete RPMI media and added to each plate using a Micro Flow dispenser. After 5 days incubation in a humidified and temperature controlled incubator (37° C.), Cell Titer Glo (Promega) was added to the assay plates and chemiluminescence read using an Envision plate-reader.

The nature of series [1]: Cytotoxicity assay in MT-4 cells. The series is classed as cell-based. To be noted: human; uninfected MT-4 cells, 5 days incubation, Cell Titer Glo; read-out: MT4 CC50. The protocol: as §1
Assays were performed as above except uninfected MT-4 cells were added to each well containing test compound. In addition, […] puromycin was added to the last column of each assay plate to assess a base level of cytotoxicity.
On the technique in general: Cellular ATP, detected with luciferase, serves as a proxy for viable cell number.

Where [2] appears, read: Human immunodeficiency virus 1, MT4, 120 h, HIV-1 IIIB in MT-4 cells, 5 days incubation, Cell Titer Glo, read-out: MT4 EC50.

What is called EC50 is the concentration at which the effect is half-maximal. A word on the CC50: it is the concentration at which the toxic effect on the cells reaches its halfway point. Consider `CCCCCCCCCCCCCC(=O)Oc1c2n(cc(C(=O)NCc3ccc(F)cc3F)c1=O)[C@@H]1CN(C2=O)[C@@H](C)CC[C@]12CC(OC)=NO2` [Example 26, (3′S,5S,7′R)-10′-((2,4-difluorobenzyl)carbamoyl)-3-methoxy-3′-methyl-1′,11′-dioxo-1′,4′,5′,11′-tetrahydro-3′H,4H,7′H-spiro[isoxazole-5,6′-[2,7]methanopyrido[1,2-a][1,4]diazonin]-12′-yl tetradecanoate], for which the EC50 in the series with HIV-1 (IIIB) (setting [2]) was 2.62 nM. Further, in series [1], the CC50 at 5 days came out at 22600 nM.

Consider `CCCCCCCCCCCCCCCC(=O)Oc1c2n(cc(C(=O)NCc3ccc(F)cc3F)c1=O)[C@@H]1CN(C2=O)[C@@H](C)CC[C@]12CC(OC)=NO2` [Example 27, (3′S,5S,7′R)-10′-((2,4-difluorobenzyl)carbamoyl)-3-methoxy-3′-methyl-1′,11′-dioxo-1′,4′,5′,11′-tetrahydro-3′H,4H,7′H-spiro[isoxazole-5,6′-[2,7]methanopyrido[1,2-a][1,4]diazonin]-12′-yl palmitate], for which the EC50 with HIV-1 (IIIB) (setting [2]) came out at 4.5 nM. Further, the CC50 at 5 days in series [1] is not below 50000 nM.

For `COC1=NO[C@@]2(CC[C@H](C)N3C[C@H]2n2cc(C(=O)NCc4ccc(F)cc4F)c(=O)c(OC(C)=O)c2C3=O)C1` [Example 28, (3′S,5S,7′R)-10′-((2,4-difluorobenzyl)carbamoyl)-3-methoxy-3′-methyl-1′,11′-dioxo-1′,4′,5′,11′-tetrahydro-3′H,4H,7′H-spiro[isoxazole-5,6′-[2,7]methanopyrido[1,2-a][1,4]diazonin]-12′-yl acetate], the EC50 in the series on HIV-1 (IIIB) (setting [2]) is 1.72 nM. For the same molecule, the CC50 at 5 days in series [1] was determined as 11600 nM.

Turning to `CCCCC(=O)Oc1c2n(cc(C(=O)NCc3ccc(F)cc3F)c1=O)[C@@H]1CN(C2=O)[C@@H](C)CC[C@]12CC(OC)=NO2` [Example 29, (3′S,5S,7′R)-10′-((2,4-difluorobenzyl)carbamoyl)-3-methoxy-3′-methyl-1′,11′-dioxo-1′,4′,5′,11′-tetrahydro-3′H,4H,7′H-spiro[isoxazole-5,6′-[2,7]methanopyrido[1,2-a][1,4]diazonin]-12′-yl pentanoate], the EC50 with HIV-1 (IIIB) (setting [2]) is 1.61 nM. In addition, in series [1], the CC50 at 5 days was 12300 nM.

In the case of `COC1=NO[C@@]2(CC[C@H](C)N3C[C@H]2n2cc(C(=O)NCc4ccc(F)cc4F)c(=O)c(OC(=O)OC(C)C)c2C3=O)C1` [Example 30, (3′S,5S,7′R)-10′-((2,4-difluorobenzyl)carbamoyl)-3-methoxy-3′-methyl-1′,11′-dioxo-1′,4′,5′,11′-tetrahydro-3′H,4H,7′H-spiro[isoxazole-5,6′-[2,7]methanopyrido[1,2-a][1,4]diazonin]-12′-yl isopropyl carbonate], in the series on HIV-1 (IIIB) (Human immunodeficiency virus 1, IIIB, MT4, 120 h, read-out: MT4 EC50 (nM)), the EC50 was found to be 1.3 nM. In series [1], the CC50 at 5 days amounted to 12600 nM.

Consider `CCCC/C=C\CCCCCCCC(=O)Oc1c2n(cc(C(=O)NCc3ccc(F)cc3F)c1=O)[C@@H]1CN(C2=O)[C@@H](C)CC[C@]12CC(OC)=NO2` [Example 31, (3′S,5S,7′R)-10′-((2,4-difluorobenzyl)carbamoyl)-3-methoxy-3′-methyl-1′,11′-dioxo-1′,4′,5′,11′-tetrahydro-3′H,4H,7′H-spiro[isoxazole-5,6′-[2,7]methanopyrido[1,2-a][1,4]diazonin]-12′-yl (Z)-tetradec-9-enoate], for which, in the series on HIV-1 (IIIB) (setting [2]), the EC50 is 2.39 nM. In series [1], the CC50 at 5 days worked out at 15700 nM.

With `CCC(=O)Oc1c2n(cc(C(=O)NCc3ccc(F)cc3F)c1=O)[C@@H]1CN(C2=O)[C@@H](C)CC[C@]12CC(OC)=NO2` [Example 32, (3′S,5S,7′R)-10′-((2,4-difluorobenzyl)carbamoyl)-3-methoxy-3′-methyl-1′,11′-dioxo-1′,4′,5′,11′-tetrahydro-3′H,4H,7′H-spiro[isoxazole-5,6′-[2,7]methanopyrido[1,2-a][1,4]diazonin]-12′-yl propionate], in the series on HIV-1 (IIIB) (setting [2]), the EC50 turned out to be 1.18 nM. In addition, the CC50 at 5 days in series [1] stood at 31700 nM.

On to `CCC(=O)Oc1c2n(cc(C(=O)NCc3ccc(F)cc3F)c1=O)[C@@H]1CN(C2=O)[C@@H](C)CC[C@]12CC(C)=NO2` [Example 33, (3′S,5S,7′R)-10′-((2,4-difluorobenzyl)carbamoyl)-3,3′-dimethyl-1′,11′-dioxo-1′,4′,5′,11′-tetrahydro-3′H,4H,7′H-spiro[isoxazole-5,6′-[2,7]methanopyrido[1,2-a][1,4]diazonin]-12′-yl propionate], for which the EC50 with HIV-1 (IIIB) (setting [2]) worked out at 1.42 nM. In addition, in series [1], the CC50 at 5 days is 22600 nM.

`CCCC(=O)Oc1c2n(cc(C(=O)NCc3ccc(F)cc3F)c1=O)[C@@H]1CN(C2=O)[C@@H](C)CC[C@]12CC(OC)=NO2` [Example 34, (3′S,5S,7′R)-10′-((2,4-difluorobenzyl)carbamoyl)-3-methoxy-3′-methyl-1′,11′-dioxo-1′,4′,5′,11′-tetrahydro-3′H,4H,7′H-spiro[isoxazole-5,6′-[2,7]methanopyrido[1,2-a][1,4]diazonin]-12′-yl butyrate]: the EC50 in the series with HIV-1 (IIIB) (setting [2]) was 0.218 nM. The CC50 at 5 days in series [1] came out at 16300 nM.

With `CCCC(=O)Oc1c2n(cc(C(=O)NCc3ccc(F)cc3F)c1=O)[C@@H]1CN(C2=O)[C@@H](C)CC[C@]12CC(C)=NO2` [Example 35, (3′S,5S,7′R)-10′-((2,4-difluorobenzyl)carbamoyl)-3,3′-dimethyl-1′,11′-dioxo-1′,4′,5′,11′-tetrahydro-3′H,4H,7′H-spiro[isoxazole-5,6′-[2,7]methanopyrido[1,2-a][1,4]diazonin]-12′-yl butyrate], in the series with HIV-1 (IIIB) (setting [2]), the EC50 turned out to be 0.203 nM. In series [1], the CC50 at 5 days amounted to 14100 nM.

For the molecule `CCCCCC(=O)Oc1c2n(cc(C(=O)NCc3ccc(F)cc3F)c1=O)[C@@H]1CN(C2=O)[C@@H](C)CC[C@]12CC(OC)=NO2` [Example 36, (3′S,5S,7′R)-10′-((2,4-difluorobenzyl)carbamoyl)-3-methoxy-3′-methyl-1′,11′-dioxo-1′,4′,5′,11′-tetrahydro-3′H,4H,7′H-spiro[isoxazole-5,6′-[2,7]methanopyrido[1,2-a][1,4]diazonin]-12′-yl hexanoate], in the series on HIV-1 (IIIB) (setting [2]), the EC50 is 0.345 nM. Further, in series [1], the CC50 at 5 days was 19600 nM.

As to `CCCCCC(=O)Oc1c2n(cc(C(=O)NCc3ccc(F)cc3F)c1=O)[C@@H]1CN(C2=O)[C@@H](C)CC[C@]12CC(C)=NO2` [Example 37, (3′S,5S,7′R)-10′-((2,4-difluorobenzyl)carbamoyl)-3,3′-dimethyl-1′,11′-dioxo-1′,4′,5′,11′-tetrahydro-3′H,4H,7′H-spiro[isoxazole-5,6′-[2,7]methanopyrido[1,2-a][1,4]diazonin]-12′-yl hexanoate], the EC50 with HIV-1 (IIIB) (setting [2]) was 0.403 nM. In addition, the 50% cytotoxic concentration (CC50) at 5 days in series [1] is 17400 nM.

For `CCCCCCC(=O)Oc1c2n(cc(C(=O)NCc3ccc(F)cc3F)c1=O)[C@@H]1CN(C2=O)[C@@H](C)CC[C@]12CC(OC)=NO2` [Example 38, (3′S,5S,7′R)-10′-((2,4-difluorobenzyl)carbamoyl)-3-methoxy-3′-methyl-1′,11′-dioxo-1′,4′,5′,11′-tetrahydro-3′H,4H,7′H-spiro[isoxazole-5,6′-[2,7]methanopyrido[1,2-a][1,4]diazonin]-12′-yl heptanoate], the EC50 in the series on HIV-1 (IIIB) (setting [2]) was determined as 0.331 nM. For the same molecule, the CC50 at 5 days in series [1] came to 25700 nM.

As for `CCCCCCC(=O)Oc1c2n(cc(C(=O)NCc3ccc(F)cc3F)c1=O)[C@@H]1CN(C2=O)[C@@H](C)CC[C@]12CC(C)=NO2` [Example 39, (3′S,5S,7′R)-10′-((2,4-difluorobenzyl)carbamoyl)-3,3′-dimethyl-1′,11′-dioxo-1′,4′,5′,11′-tetrahydro-3′H,4H,7′H-spiro[isoxazole-5,6′-[2,7]methanopyrido[1,2-a][1,4]diazonin]-12′-yl heptanoate], the EC50 in the series on HIV-1 (IIIB) (setting [2]) was determined as 0.75 nM. Further, the CC50 at 5 days in series [1] is 23700 nM.

Turning to `CCCCCCCC(=O)Oc1c2n(cc(C(=O)NCc3ccc(F)cc3F)c1=O)[C@@H]1CN(C2=O)[C@@H](C)CC[C@]12CC(OC)=NO2` [Example 40, (3′S,5S,7′R)-10′-((2,4-difluorobenzyl)carbamoyl)-3-methoxy-3′-methyl-1′,11′-dioxo-1′,4′,5′,11′-tetrahydro-3′H,4H,7′H-spiro[isoxazole-5,6′-[2,7]methanopyrido[1,2-a][1,4]diazonin]-12′-yl octanoate], the EC50 in the series on HIV-1 (IIIB) (setting [2]) stood at 0.592 nM. Also, the CC50 at 5 days in series [1] was determined as 25100 nM.

In the case of `CCCCCCCC(=O)Oc1c2n(cc(C(=O)NCc3ccc(F)cc3F)c1=O)[C@@H]1CN(C2=O)[C@@H](C)CC[C@]12CC(C)=NO2` [Example 41, (3′S,5S,7′R)-10′-((2,4-difluorobenzyl)carbamoyl)-3,3′-dimethyl-1′,11′-dioxo-1′,4′,5′,11′-tetrahydro-3′H,4H,7′H-spiro[isoxazole-5,6′-[2,7]methanopyrido[1,2-a][1,4]diazonin]-12′-yl octanoate], in the series with HIV-1 (IIIB) (setting [2]), the EC50 came to 0.319 nM. For the same molecule, in series [1], the CC50 at 5 days was 11500 nM.

Regarding `CCCCCCCCC(=O)Oc1c2n(cc(C(=O)NCc3ccc(F)cc3F)c1=O)[C@@H]1CN(C2=O)[C@@H](C)CC[C@]12CC(OC)=NO2` [Example 42, (3′S,5S,7′R)-10′-((2,4-difluorobenzyl)carbamoyl)-3-methoxy-3′-methyl-1′,11′-dioxo-1′,4′,5′,11′-tetrahydro-3′H,4H,7′H-spiro[isoxazole-5,6′-[2,7]methanopyrido[1,2-a][1,4]diazonin]-12′-yl nonanoate], the EC50 with HIV-1 (IIIB) (setting [2]) worked out at 1.94 nM. In series [1], the CC50 at 5 days is 40600 nM.
